# Laboratory results as given in patent US20140377324A1, “Pharmaceutical Composition Comprising miRNA-100 And Its Use In The Modulation of Blood Vessel Growth and Endothelial Inflammation” (Universitatsklinikum Freiburg, priority 2009, published 2014).
# Entries after “also recorded” stand apart in the source; their conditions may differ. {Chol} = cholesterol
# How the values were obtained:
# miR-100 [1] = experiment: miR-100 expression in endothelial cells after cytokine, inhibitor or statin exposure (stem loop Taqman PCR); type: cell-based, human; conditions: for miR-100 expression: endothelial cells exposed to cytokine, TNF-α 10 ng/ml for different time points (FIG. 16A)
# Source text: (§1) MicoRNA expression was validated by quantitative stem-loop PCR technology (TaqMan MicroRNA Assays, Applied Biosystems, Foster City, Calif.). The use of target-specific reverse transcription primers and TaqMan hybridization probes allows the specific detection of mature microRNAs. MicroRNA expression was normalized to the expression of the small RNAs rnu19 and rnu48.
# To search for possible inducers of miR-100 downregulation in endothelial cells, several pro-angiogenic or pro-arteriogenic cytokines were screened for effects on miR-100 expression.
# FIG. 16 [A]: Human endothelial cells were stimulated 10 ng/ml TNF-α for different time points. RNA was isolated and quantified using Taqman based Stem loop PCR.
# FIG. 16 [B]: The NF-kappaB inhibitor PS1145 (10 μM) was added to TNF-α stimulated (10 ng/ml) human endothelial cells and the miR-100 expression level, compared to controls without PS1145, were measured using Stem loop Taqman PCR.
# Human endothelial cells were stimulated with 1 μM Simvastatin for 48 h.
# miR-100 [2] = experiment: miR-100 expression in mouse tissues after antagomir treatment; type: in vivo; conditions: mice, three doses of antagomir; FIG. 8
# Experimental: (§2) The murine hindlimb ischemia model conforms to the Guide for the Care and Use of Laboratory Animals published by the U.S. National Institutes of Health and was performed after securing appropriate institutional approval. Unilateral femoral artery occlusion was performed in C57/BI6J mice (Charles River Lab., Sulzfeld, Germany) by double ligation of the superficial femoral artery proximal to the deep femoral artery and the distal femoral artery just above the knee joint. A sham operation without arterial occlusion was performed on the contralateral leg. For molecular biology, histology and in situ hybridization, tissue was carefully dissected and snap-frozen in liquid nitrogen until further analysis. For dissection of isolated collateral arteries, the hindlimb vasculature was […] with liquid latex, to allow the identification and isolation of individual arterial vessels.
# (§3) To assess whether inhibition of miR-100 can be be used to stimulate revascularization in vivo, mice were treated with a specific antagomir against miR-100 after induction of unilateral hindlimb ischemia.
# [3] = tissue distribution of fluorescence-labeled antagomir; type: in vivo; conditions: mice
# [4] = system: murine hindlimb ischemia model; experiment: murine hindlimb ischemia model, perfusion restoration and capillary density; type: in vivo, C57/BI6J mice
# Experimental: as §2, §3
# In addition, two separate groups of mice were treated with daily injections of the mTOR-inhibitor rapamycin or solvent to investigate the timecourse of hindlimb perfusion restoration under conditions of endogenous miR-100 downregulation, but impaired signalling of its target gene mTOR.
# miR-100 [5] = experiment: miR-100 level by quantitative stem-loop RT-PCR after pre-miR/anti-miR transfection; type: cell-based, human; conditions: 24 h following transfection; vs irrelevant-sequence controls; FIG. 2
# Source text: To verify the expression of miR-100 in pure cell populations of the vascular wall, stem-loop RT-PCR was used for total RNA-isolates from cultured human endothelial cells (HUVECs) and human aortic vascular smooth muscle cells.
# as §1
# miR-100 was strongly expressed in both cell types. To investigate a potential role of miR-100 for angiogenesis, miR-100 was overexpressed and silenced in these cell types by transfecting specific miR-100 precursors (pre-miRs) or antisense-molecules (anti-miRs), respectively. […] Pre- and anti-miRs with an irrelevant nucleotide sequence served as negative controls. There was no significant difference in cellular viability following transfection with the different compounds.
# For transfection with pre-miR microRNA precursor molecules or anti-miRmiRNA inhibitors (all Ambion), cells were cultured to 70% confluence and transfected with 8nM pre-miR-100 or anti-miR-100 oligonucleotides using Lipofectamin RNAiMax (invitrogen) according to the manufacturers instructions. […]
# endothelial cells [6] = experiment: planar matrigel assay, endothelial network formation; type: cell-based, human
# endothelial cells [7] = experiment: three-dimensional spheroid culture assay, endothelial sprouting; type: cell-based, human
# endothelial cells [8] = experiment: flow cytometric quantification of Annexin V-staining (apoptosis); type: cell-based, human; conditions: compared to irrelevant control sequence, FIG. 3
# Source text: (§4) To assess whether the observed differences were secondary to effects on cellular viability, endothelial cell apoptosis and proliferation following miR-100 modulation was checked. […] DNA-synthesis rate was further analyzed by measuring BrdU-Incorporation, which correlates well with cellular proliferation.
# endothelial cells [9] = experiment: BrdU-Incorporation (proliferation), endothelial cells; type: cell-based, human; conditions: FIG. 3
# Source text: as §4
# mTOR = mTOR expression in endothelial cells after miR-100 modulation; type: cell-based, human; conditions: FIG. 5
# Experimental: The binding site of miR-100 in the 3′-UTR of mTOR is shown in (FIG. 6.) In FIG. 6 the sequence designated hsa-miR-100 corresponds to SEQ ID NO:1 and the sequence having the designation mTOR 3′UTR corresponds to SEQ ID NO:7.
# For transfection with pre-miR microRNA precursor molecules or anti-miRmiRNA inhibitors (all Ambion), cells were cultured to 70% confluence and transfected with 8nM pre-miR-100 or anti-miR-100 oligonucleotides using Lipofectamin RNAiMax (invitrogen) according to the manufacturers instructions. For transfection of HEK293 cells with mTOR plasmids, 2 μg DNA per 3×10E5 cells was transfected with Fugene 6 transfection reagent (Roche). For double transfection of plasmids with miRNA-precursors and inhibitors, pre- and anti-miRs were added to the plasmid/Fugene transfection mix in the same final concentrations as stated above. mTOR (Acc. NM004958) full length (SKU SC124066) and ORF-constructs (SKU RC220457) were obtained from the Origene collection (Origene, Rockville, Md.).
# HUVECs / human PBMCs = experiment: Leukocyte-HUVEC interaction under flow conditions (flow chamber); type: cell-based; conditions: TNF-alpha 30 ng/ml for 24 h, flow 1 dyn/cm^2; FIG. 15
# Experimental: HUVECs were grown to confluence, transfected with either anti-miR-100 or pre-Mir-100 oligonucelotides or scrambled controls and stimulated with TNF-alpha 30 ng/ml for 24 h. Human PBMCs (HPBMCs) were obtained from buffy coats of healthy donors by Ficoll-Hypaque density gradient centrifugation. The flow chamber was assembled and placed onto an inverted microscope stage, and freshly isolated HPBMCs (1×10^6/ml) were perfused across the endothelial monolayers. In all experiments, leukocyte interactions were determined over 105 min at 1 dyn/cm^2. Cells interacting on the surface of the endothelium were visualized and recorded using phase-contrast microscopy.
# To test if this change in expression results in a functional difference in leukocyte rolling and adhesion to the endothelial surface, the attachment of isolated peripheral blood mononuclear cells (PBMC) to transfected endothelial cells was investigated under physiologic flow conditions in a flow chamber apparatus.
# A physiological venous blood flow (1 dynes/cm^2) was induced by a flow chamber apparatus and the number of rolling or adherent peripheral blood mononuclear cells (PBMCs) was counted.
compound,measurement,setting,value
"O=C(Nc1cc(Cl)cc2c1[nH]c1cnccc12)c1cccnc1 [PS1145, reference compound]",TNF-alpha effect on miR-100 expression,"miR-100 [1]; PS1145 10 μM, TNF-α 10 ng/ml, human endothelial cells, FIG. 16B",abrogated the TNF-alpha effect; also recorded: attenuates the regulatory effect of TNF-alpha on miR-100 levels
"Antag-100: antagomir 5′-cacaaguucggaucuacggguu-3′ (SEQ ID No. 3), 2-O-methyl-RNA, phosphothioat modifications, cholesterol conjugation at 3′-end (antisense CACAAGUUCGGAUCUACGGGUU; all 2'-O-methyl, 3' {Chol}, backbone not given here; phosphorothioate modifications)",miR-100 expression in a wide selection of tissues,miR-100 [2],strong and sustained suppression of miR-100 expression
same,tissue localisation of antagomir,[3],found in the endothelial layer of blood vessels; also recorded: most prominent accumulation was found in liver and lung sections
same,flow ratio,"[4]; day 7 following induction of ischemia, compared to two control-antagomirs",higher flow ratio
same,capillary density,[4]; distal hindlimb / ischemic tissue,increase in capillary density
same,perfusion restoration (blood flow restoration),"[4]; mice, after femoral artery occlusion, day 7, vs control-antagomirs or solvent, FIG. 9",significant stimulation of perfusion restoration
FGF2: pro-angiogenic or pro-arteriogenic cytokine,miR-100 expression,miR-100 [1],no sustained and reproducible effect
TGF-beta1: pro-angiogenic or pro-arteriogenic cytokine,miR-100 expression,miR-100 [1],no sustained and reproducible effect
TNF-alpha,miR-100 expression,miR-100 [1],significant downregulation of miR-100
same,miR-100 expression,miR-100 [1]; listed as Tumor necrosis factor (TNF)-alpha,sustained downregulation of miR-100
same,dose dependency of miR-100 decrease,"miR-100 [1]; endothelial cells, TNF-alpha concentrations tested",trend for a more pronounced decrease of miR-100 expression with higher doses
VEGF,miR-100 expression,miR-100 [1],no sustained and reproducible effect
"anti-miR-100: antisense-molecule (anti-miR miRNA inhibitor, Ambion) silencing miR-100 in cultured cells; SEQ ID No:3 designated Anti miR (antisense CACAAGUUCGGAUCUACGGGUU; listed as RNA, chemistry not given here)",detectable miR-100 (relative miR-100 expression),miR-100 [5],significantly decreased miR-100 levels
same,endothelial network formation,endothelial cells [6],increased endothelial network formation
same,endothelial sprouting (total sprout length),endothelial cells [7],longer total sprout length
same,endothelial cell apoptosis,endothelial cells [8],no significant effect
same,endothelial cell proliferation (DNA-synthesis rate),endothelial cells [9],consistent stimulatory effect
same,mTOR-expression on both mRNA as well as protein level,mTOR,significant upregulation
same,leukocyte (PBMC) adhesion to transfected endothelial cells,HUVECs / human PBMCs,stimulatory effect
same,leukocyte (PBMC) rolling on transfected endothelial cells,HUVECs / human PBMCs,stimulatory effect
